{"source": "patent US20250367209A1", "about": "(SOUTHERN RESEARCH INSTITUTE, priority 2022, published 2025)", "key": {"Tau-FynSH3 interaction": {"target": "Tau-FynSH3 interaction (Homo sapiens (Human), UniProt P10636)", "sequence (P10636 other isoform, or with tags, fused parts or gaps)": "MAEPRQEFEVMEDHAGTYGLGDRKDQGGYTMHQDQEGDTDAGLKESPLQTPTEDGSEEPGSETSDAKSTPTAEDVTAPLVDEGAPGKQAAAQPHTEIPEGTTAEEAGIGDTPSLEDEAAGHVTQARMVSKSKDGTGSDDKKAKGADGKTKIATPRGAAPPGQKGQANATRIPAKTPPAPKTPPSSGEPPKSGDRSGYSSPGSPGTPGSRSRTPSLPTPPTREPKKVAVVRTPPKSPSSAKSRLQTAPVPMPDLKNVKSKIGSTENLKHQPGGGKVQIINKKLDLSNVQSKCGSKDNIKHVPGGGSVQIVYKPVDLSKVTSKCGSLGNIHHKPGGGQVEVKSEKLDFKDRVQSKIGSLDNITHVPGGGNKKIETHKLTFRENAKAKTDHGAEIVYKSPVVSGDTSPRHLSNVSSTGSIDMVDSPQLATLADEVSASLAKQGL", "test": "Tau-Flag PLA, Tau-FynSH3", "format": "cell-based", "protocol": "Tau-Flag PLA for Tau-SH3 interactions: To clone the SH3 constructs, a C-terminal Flag tag was added to the Tau construct using PCR, then the Tau sequence was replaced with the desired SH3 domain using In-Fusion HD cloning kit (Takara Bio). Next, an N-terminal GST tag was added to help expression using In-Fusion, resulting in GST-SH3-Flag plasmids. As a negative control, restriction enzymes were used to remove the FynSH3 from the FynSH3 construct, resulting in GST-Flag. All sequences were confirmed with Sanger sequencing, and expression in HEK-293 cells was verified by western blot and immunocytochemistry. Plating and experimental timeline was the same as above. Cells were transfected with 125 ng of Tau-mKate2 and 500 ng SH3 plasmid with 1.5 μL Fugene. compound no. 69 was applied to final concentration 15 μM. For Tau-SH3 PLA, we used Dako Tau (1:1000) and Flag (1:1000) primary antibodies."}, "[1]": {"tested_on": "endogenous Tau-Fyn interaction", "test": "Endogenous Tau-Fyn PLA in primary neurons", "format": "cell-based, rat", "conditions": "3 μM and 15 μM, 24 hours", "protocol": "Endogenous Tau-Fyn PL, in primary neurons: All PLA protocols were adapted from our recent study (Rush, et al. (2020) Neurobiol Dis 134, 104668).\nFor the endogenous Tau-Fyn PLA, neurons were grown on coverslips as described above to DIV20, then treated with compound no. 69 or vehicle, and fixed with PFA 24 hours later. Dako Tau (1:1000) and Fyn15 (1:250) antibodies were used. Duolink In Situ Fluorescence kit was used for PLA. Briefly, coverslips with fixed cells were permeabilized for 10 minutes in 0.25% Triton X-100, then blocked in 5% NGS in PBS for one hour at room temperature. Coverslips were incubated overnight at 4° C. with primary antibody in 1% NGS, then washed 3×5 minutes in PBS. Coverslips were then incubated for 1 hour at 37° C. in PLA probes (Anti-Mouse minus, Anti-Rabbit plus). […] To quantify PLA puncta, PLA fluorescence was thresholded, then ImageJ particle analyzer was run, specifying size and circularity to exclude any non-punctate signal. Quantified values were then normalized to values for vehicle-treated slides from that experiment. […]"}}, "note": "Entries after “also recorded” stand apart in the source; their conditions may differ."}
{"smiles": "O=C(CN1CCOc2ccccc21)Nc1nnc(-c2ccccn2)[nH]1", "note": "[compound no. 69]", "values": [{"measurement": "Tau-FynSH3 interaction, Tau-Flag PLA (in words)", "setting": "Tau-FynSH3 interaction; 15 μM, HEK-293 cells", "result": "inhibited"}, {"measurement": "inhibition at 15 µM", "setting": "Tau-FynSH3 interaction; HEK293, HEK-293 cells", "result": 37, "unit": "%"}, {"measurement": "endogenous Tau-Fyn interaction, PLA in primary neurons", "setting": "[1]", "result": "inhibited endogenous Tau-Fyn interaction at both 3 μM and 15 μM; also recorded: reduces endogenous Tau-Fyn PLA"}]}
